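Grown in 96-well plates, cells were treated for 48 hours with each compound at five concentrations. Insufficient inhibition: endpoint recorded as highest concentration tested. GI50 = concentration required for 50% inhibition of growth. Definition used: TGI = concentration required for complete inhibition of growth.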
Tests used:
Experiment in all cases: NCI-60 cell line screen, 48 h
A498 renal = system: A498 renal
COLO 205 colon = system: COLO 205 colon
HOP-62 NSCLC = system: HOP-62 NSCLC
IGROV1 ovarian = system: IGROV1 ovarian
LOX IMVI melanoma = system: LOX IMVI melanoma
MALME-3M melanoma = system: MALME-3M melanoma
MCF7 breast = system: MCF7 breast
SF-295 CNS = system: SF-295 CNS
SNB-75 CNS = system: SNB-75 CNS
SR leukemia = system: SR leukemia

Compound | TGI (A498 renal) [µM] | TGI (COLO 205 colon) [µM] | TGI (HOP-62 NSCLC) [µM] | TGI (IGROV1 ovarian) [µM] | TGI (LOX IMVI melanoma) [µM] | TGI (MALME-3M melanoma) [µM] | TGI (MCF7 breast) [µM] | TGI (SF-295 CNS) [µM] | TGI (SNB-75 CNS) [µM] | TGI (SR leukemia) [µM] | GI50 (A498 renal) [µM] | GI50 (COLO 205 colon) [µM] | GI50 (HOP-62 NSCLC) [µM] | GI50 (IGROV1 ovarian) [µM] | GI50 (LOX IMVI melanoma) [µM] | GI50 (MALME-3M melanoma) [µM] | GI50 (MCF7 breast) [µM] | GI50 (SF-295 CNS) [µM] | GI50 (SNB-75 CNS) [µM] | GI50 (SR leukemia) [µM]
Cc1ccc2ccccc2c1CSc1nc(N)nc2c1ncn2CC(C)C | 99.6 | 20.2 | > 100 | > 100 | > 100 | > 62.2 | > 63.9 | > 100 | > 100 | 50.6 | – | – | – | – | – | – | – | – | – | –
CCCCCCCCN(CCCCCCCC)CC(O)c1cc(-c2ccccc2)nc2ccc(OC)cc12 (stereo not given) | > 100 | > 100 | > 100 | > 100 | 34.7 | > 100 | > 100 | > 100 | > 100 | 97.3 | > 100 | 22.1 | 30.4 | > 100 | 12.6 | > 100 | 38.9 | > 100 | > 100 | 10.1
Cc1nnc(N/N=C/c2ccc([N+](=O)[O-])o2)[nH]c1=O | 14.3 | > 100 | > 68.2 | > 100 | > 100 | 4.3 | > 100 | > 100 | 67.5 | > 100 | 0.756 | 2.53 | 1.45 | 3.82 | 0.659 | 0.97 | 1.24 | 1.93 | 1.36 | 1.1
O=C(Nc1cccc([N+](=O)[O-])c1)c1cccc(C(=O)Nc2cccc([N+](=O)[O-])c2)c1 | 79.5 | > 100 | > 70.5 | > 100 | > 100 | > 100 | > 100 | > 90.4 | 72.2 | > 100 | 20.2 | > 100 | 21.9 | 33.9 | > 100 | > 100 | > 100 | 23.2 | 8.42 | > 100
CCC(=O)OCOc1ccc(/C=C2\CCC(CN(C)C)C2=O)cc1 (stereo not given) | 30.6 | 15.8 | 33.5 | 16.3 | 4.1 | 10.6 | 10.1 | 20.5 | 27.6 | 9.25 | – | – | – | – | – | – | – | – | – | –
COC(=O)CC[C@@H](C)[C@H]1CC[C@H]2[C@@H]3CC[C@@H]4C[C@H](O)CC[C@]4(C)[C@H]3CC[C@]12C | 35.1 | 35.4 | 35.5 | 35.4 | 35.7 | 34.8 | 36.3 | 33.9 | 36.1 | 52.1 | – | – | – | – | – | – | – | – | – | –
Cc1cc(N(CCC#N)S(=O)(=O)c2ccccc2)ccc1C=Nc1ccc(C(=O)O)cc1 | 44.5 | 10.1 | 46 | 46.5 | 25.5 | 12 | > 100 | 44.8 | 29.1 | > 40.9 | – | – | – | – | – | – | – | – | – | –
CC1=CC(C)=N/C(=N/S(=O)(=O)c2cc(C)c(Cl)cc2SCc2ccccc2)NN1 | > 100 | > 100 | > 100 | > 100 | > 100 | > 100 | > 100 | > 100 | > 100 | > 100 | > 100 | > 100 | 82.5 | > 100 | > 100 | > 100 | > 100 | > 100 | 32.5 | > 100
COc1cc2c(cc1OC)C(Cl)C(c1ccc(Br)cc1)=C2Cl (stereo not given) | 33.1 | 29.1 | 35.4 | 31.8 | 24.4 | 28 | 21.2 | 30.5 | 27.7 | > 100 | – | – | – | – | – | – | – | – | – | –
CC1=C(CCC(C)CO)O[C@H]2C[C@H]3[C@@H]4CC[C@H]5C[C@@H](O)CC[C@]5(C)[C@H]4CC(=O)[C@]3(C)[C@@H]12 (stereo not given in full) | 44 | 27.7 | 38.3 | 55 | 33.8 | 57.1 | > 59.4 | > 49.9 | 50.5 | 36.4 | – | – | – | – | – | – | – | – | – | –

From PubChem BioAssay (NCI)
